Key:
Experiment in all cases: relative viability (nuclei count vs DMSO), 5 days (fraction); higher = more cells survive
[1] = compound: NCC(=O)Nc1ccc(-n2nc(C(F)(F)F)cc2-c2ccc3c(ccc4ccccc43)c2)cc1 + CC(C)C[C@H](NC(=O)[C@H](Cc1ccccc1)NC(=O)c1cnccn1)B(O)O [Bortezomib] (partner 0.002 µM)
Outline: (§1)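 Relative viability equals treated-well nuclei counts divided by vehicle-well nuclei counts. Counts came from 4× images of lung cancer cell lines grown in 1536-well plates for 5 days after pin-tool dosing on the day after seeding. Dosing used one drug alone or a fixed anchor-drug dose plus five library-drug doses (not always all listed) in √10 steps, and values are medians of duplicate plates.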

[2] = compound: C1CSC2=C(C(=O)N1)SC3=C2C=C(C=C3)O [kb NB 142-70] + C[C@@H](Oc1cc(-c2cnn(C3CCNCC3)c2)cnc1N)c1c(Cl)ccc(F)c1Cl [Crizotinib] (partner 1 µM)
Outline: as §1

[3] = compound: C1CSC2=C(C(=O)N1)SC3=C2C=C(C=C3)O [kb NB 142-70] + CC(=O)c1c(C)c2cnc(Nc3ccc(N4CCNCC4)cn3)nc2n(C2CCCC2)c1=O [Palbociclib] (partner 0.5 µM)
Outline: as §1

[4] = compound: NCC(=O)Nc1ccc(-n2nc(C(F)(F)F)cc2-c2ccc3c(ccc4ccccc43)c2)cc1 + NC(=O)Nc1cc(-c2cccc(F)c2)sc1C(=O)N[C@H]1CCCNC1 [AZD7762] (partner 0.2 µM)
Outline: as §1

[5] = compound: C1CSC2=C(C(=O)N1)SC3=C2C=C(C=C3)O [kb NB 142-70] + CC(C)C[C@H](NC(=O)[C@H](Cc1ccccc1)NC(=O)c1cnccn1)B(O)O [Bortezomib] (partner 0.002 µM)
Outline: as §1

Cell Line	relative viability ([1]; first compound 0.02 µM)	relative viability ([1]; first compound 0.06325 µM)	relative viability ([1]; first compound 0.2 µM)	relative viability ([1]; first compound 0.6325 µM)	relative viability ([1]; first compound 2 µM)	relative viability ([2]; first compound 0.1 µM)	relative viability ([2]; first compound 1 µM)	relative viability ([2]; first compound 3.162 µM)	relative viability ([3]; first compound 0.1 µM)	relative viability ([3]; first compound 1 µM)	relative viability ([3]; first compound 3.162 µM)	relative viability ([4]; first compound 0.02 µM)	relative viability ([4]; first compound 0.06325 µM)	relative viability ([4]; first compound 0.2 µM)	relative viability ([4]; first compound 0.6325 µM)	relative viability ([4]; first compound 2 µM)	relative viability ([5]; first compound 0.1 µM)	relative viability ([5]; first compound 1 µM)	relative viability ([5]; first compound 3.162 µM)
NCI-H1993	1.1	1.28	1.08	1.15	1.21	0.842	0.892	0.854	0.688	0.583	0.638	0.957	0.933	0.706	0.839	0.784	1.14	1.07	1.17
NCI-H1734	1.1	0.957	0.886	1.02	0.891	0.68	0.652	0.383	0.365	0.363	0.279	0.52	0.556	0.565	0.515	0.611	0.889	0.867	0.49
HOP-62	0.828	0.859	0.728	0.339	1.02	0.869	1.02	1.03	0.496	0.473	0.441	0.646	0.482	0.693	0.566	0.711	0.919	1	0.569
LOU-NH91	0.485	0.523	0.485	0.511	0.484	0.75	0.732	0.644	0.494	0.536	0.417	0.799	0.783	0.784	0.804	0.795	0.467	0.431	0.353
ChaGo-K-1	0.979	1.02	0.81	1.04	1.12	1.1	1.16	1.13	0.872	0.803	0.838	0.81	0.869	0.807	0.913	0.897	1.06	1.1	0.951
PC-14	0.966	0.822	1.06	0.895	0.858	0.933	0.909	0.92	0.557	0.636	0.496	0.419	0.367	0.36	0.328	0.381	0.896	0.932	0.82
NCI-H1437	0.531	0.422	0.536	0.487	0.499	1.01	0.997	0.946	0.337	0.297	0.279	0.974	1.21	1.13	1.1	1.11	0.485	0.492	0.482
NCI-H460	1.21	1.11	1.07	1.03	1.07	0.766	0.801	0.326	0.166	0.233	0.171	0.773	0.684	0.633	0.623	0.643	1.05	1.08	0.608
NCI-H1666	0.788	0.769	1.03	0.951	0.906	1.09	0.871	0.676	0.581	0.591	0.693	0.75	0.844	0.919	0.868	0.91	0.903	0.713	0.36
NCI-H1651	0.961	0.919	0.977	0.909	0.985	0.908	0.842	0.879	0.527	0.555	0.526	0.447	0.433	0.513	0.47	0.423	0.966	0.863	0.857
NCI-H1755	0.892	0.935	0.958	0.946	0.978	0.852	0.923	0.915	0.466	0.411	0.44	0.448	0.569	0.448	0.394	0.449	1.02	0.98	1
HARA	1.09	1.05	1.22	1.12	1.25	0.922	0.817	0.922	0.216	0.327	0.259	0.227	0.429	0.304	0.392	0.473	1.15	1.06	0.964
NCI-H23	0.908	1.11	1.1	1.02	1.12	0.502	0.522	0.253	0.409	0.471	0.28	0.191	0.249	0.219	0.274	0.277	1.1	0.896	0.516
LCLC-97TM1	0.814	0.75	0.35	0.538	0.539	0.382	0.331	0.201	0.229	0.216	0.193	0.284	0.253	0.28	0.39	0.159	0.853	0.563	0.123
EPLC-272H	0.806	0.873	0.868	0.943	1.14	0.851	1.03	0.428	0.324	0.329	0.28	0.362	0.208	0.196	0.167	0.149	0.926	1.06	0.72
NCI-H1915	0.889	1.01	0.964	0.932	1.03	0.887	0.915	0.481	0.498	0.52	0.343	0.644	0.729	0.642	0.703	0.754	0.998	1	0.85
NCI-H2405	0.924	1.04	0.999	0.961	0.987	0.796	0.885	0.717	0.552	0.563	0.499	0.725	0.781	0.774	0.728	0.718	0.969	0.993	1.01
NCI-H322M	1.41	1.29	1.15	1.18	1.14	1	1.1	1	0.541	0.511	0.505	0.569	0.711	0.578	0.636	0.681	1.2	1.25	1.3
NCI-H838	0.81	0.788	1.06	0.746	0.727	0.782	0.914	0.877	0.203	0.219	0.188	1.01	0.922	0.986	0.913	0.957	0.83	0.777	0.877
CAL-12T	0.899	1.09	0.967	0.931	1.11	0.605	0.802	0.611	0.48	0.363	0.188	0.739	0.622	0.718	0.669	0.588	1.01	1.04	0.819

— the supplement of paper PMC10307832
